# Laboratory results reported in ChEMBL document CHEMBL1201862, “PubChem BioAssay data set” (2004).
# Active and inactive are the calls of the source.
# Assays:
# Protein skinhead-1 = molecular target: T1, Protein skinhead-1 (Caenorhabditis elegans, UniProt P34707); assay type: functional
# T1 sequence (P34707 whole entry): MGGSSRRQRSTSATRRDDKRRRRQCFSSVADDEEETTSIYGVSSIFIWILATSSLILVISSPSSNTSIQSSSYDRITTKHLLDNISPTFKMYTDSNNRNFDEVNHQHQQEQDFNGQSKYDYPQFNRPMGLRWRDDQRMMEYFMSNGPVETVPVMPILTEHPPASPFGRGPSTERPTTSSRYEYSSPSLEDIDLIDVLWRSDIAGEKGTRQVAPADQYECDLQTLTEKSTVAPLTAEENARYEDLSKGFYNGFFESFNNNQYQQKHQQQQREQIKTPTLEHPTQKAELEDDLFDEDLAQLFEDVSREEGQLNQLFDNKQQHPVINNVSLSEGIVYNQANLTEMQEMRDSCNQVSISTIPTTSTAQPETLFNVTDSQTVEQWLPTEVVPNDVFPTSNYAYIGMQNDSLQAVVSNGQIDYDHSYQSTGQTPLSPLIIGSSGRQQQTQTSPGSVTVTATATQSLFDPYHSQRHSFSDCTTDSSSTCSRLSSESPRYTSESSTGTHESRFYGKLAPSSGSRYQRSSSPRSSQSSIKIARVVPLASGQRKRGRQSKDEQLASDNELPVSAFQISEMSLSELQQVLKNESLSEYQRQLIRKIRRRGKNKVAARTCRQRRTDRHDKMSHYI
# [1] = Luminescence Cell-Based Dose Confirmation HTS to Identify Activators of 5'UTR Stem-Loop Driven Alpha-Synuclein mRNA Translation in H4 Neuroglioblastoma Cells. [Related pubchem assays: 1829 (Project Summary), 1814 (Primary HTS)]; assay type: functional
# [2] = Luminescence Cell-Based Dose Response HTS to Identify Activators of Luciferase Translation or Activity in H4 […] Cells. [Related pubchem assays: 1829 (Project Summary), 1814 (Primary HTS)]; assay type: functional
# H4 = assay: Luminescence Cell-Based Dose Response HTS to Identify Activators of 5'UTR Stem-Loop Driven Prion Protein mRNA Translation in H4 Neuroglioblastoma Cells. [Related pubchem assays: 1829 (Project Summary), 1814 (Primary HTS)]; assay type: functional; settings: Homo sapiens
# cells = assay type: functional
# [3] = system: Streptococcus sp. 'group A'; assay: Streptococcus pyogenes SK(-)GAS viability under kanamycin – luminescence, BacTiterGlo, confirmation, counter-screen for streptokinase expression inhibitor project, dose response (AID 1900); assay type: functional, organism-based
# Streptokinase A = molecular target: T2, Streptokinase A (Streptococcus pyogenes serotype M1, UniProt P10520); assay: viability-normalized secreted streptokinase activity reduction – plasminogen activation absorbance, OD405, dose response (AID 1914); assay type: functional, Streptococcus pyogenes M1 GAS;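 note: secreted streptokinase activity via plasminogen activation per viability signal from cell pellet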
# T2 sequence (P10520 whole entry): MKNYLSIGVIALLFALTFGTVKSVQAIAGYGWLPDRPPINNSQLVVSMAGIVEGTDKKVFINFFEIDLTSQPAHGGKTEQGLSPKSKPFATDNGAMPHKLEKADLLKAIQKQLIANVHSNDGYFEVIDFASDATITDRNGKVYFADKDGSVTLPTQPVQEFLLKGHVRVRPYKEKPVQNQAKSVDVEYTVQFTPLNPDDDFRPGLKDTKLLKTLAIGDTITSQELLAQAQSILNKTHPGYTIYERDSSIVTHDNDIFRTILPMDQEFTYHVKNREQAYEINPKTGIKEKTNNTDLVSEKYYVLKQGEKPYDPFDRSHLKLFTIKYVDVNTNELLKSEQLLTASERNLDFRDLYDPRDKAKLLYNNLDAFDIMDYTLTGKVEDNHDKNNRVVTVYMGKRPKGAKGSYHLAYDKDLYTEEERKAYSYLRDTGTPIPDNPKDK
# Streptococcus = assay: GAS UMAA2166 growth inhibition – luminescence, BacTiterGlo, counter-screen for streptokinase expression inhibitor project, dose response (AID 1915); assay type: functional, organism-based;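 note: potency for reduction of bacterial viability or growth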
# [4] = THP-1 cell cytotoxicity, dose response, cytotoxicity control for non-replicating M. tuberculosis project (AID 489025); assay type: functional
# Fatty acid synthase [5] = molecular target: T3, Fatty acid synthase (Homo sapiens, UniProt P49327); assay: inhibition of human FAS-TE enzyme activity – biochemical, endpoint fluorescence intensity, uHTS hits, dose response (AID 624327); assay type: functional;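 note: fluorescence from hydrolysis of an O-methyl fluorescein acyl ester substrate by the enzyme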
# Fatty acid synthase [6] = molecular target: T3, Fatty acid synthase; assay: inhibition of human FAS-TE enzyme activity – biochemical, kinetic fluorescence intensity, dose response (AID 624326); assay type: functional;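 note: rate of fluorescence rise from hydrolysis of a fluorogenic O-methyl fluorescein ester substrate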
# Genome polyprotein = Genome polyprotein (dengue virus type 2, UniProt P29990); assay: flavivirus cap methylation enzyme inhibition – biochemical, confirmation dose response, primary screen (AID 588689); assay type: functional
# Nonstructural protein 1 = Nonstructural protein 1 (Influenza A virus, UniProt Q194T2); assay type: functional, Influenza A virus (A/California/07/2009(H1N1))
# Large T antigen = Large T antigen (Simian virus 40, UniProt P03070); assay type: functional, Betapolyomavirus macacae;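 note: Confirmatory-stage PubChem screen for compounds that inhibit SV40 T antigen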
# [7] = reduction of Shn3 3'UTR-driven luciferase in osteoblasts – cell-based, Clone20 osteoblasts, firefly luciferase, cherry-picked, dose response (AID 624132); assay type: functional;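 note: firefly luciferase luminescence from reporter carrying the Shn3 3'UTR in osteoblasts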
# [8] = loss of viability in HepG2 cells – cell-based, CellTiter-Glo, cherry-picked, cytotoxicity control for Shn3 inhibitor project, dose response (AID 624134); assay type: functional
# [9] = non-specific 3'UTR reporter inhibition in Clone20-Shn3RL – cell-based, Renilla luciferase, cherry-picked, counter-screen for Shn3 inhibitor project, dose response (AID 624133); assay type: functional
# Cytochrome P450 2C19 = Cytochrome P450 2C19 (Homo sapiens, UniProt P33261); assay: Cytochrome panel assay with activity outcomes. Panel member name: p450-cyp2c19 Compounds with AC50 equal or less than 10 uM are considered active; assay type: functional; settings: read-out: AC50
# [10] = blockers of HIV-1 envelope-mediated cell-cell fusion – cherry-pick, dose response (AID 652057); assay type: functional, cell-based
# [11] = blockers of HIV-1 ZM109 envelope-driven cell-cell fusion – HeLa effector, CEM target cells, luciferase, cherry-pick, dose response (AID 652058); assay type: functional, cell-based;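 note: luciferase signal from HIV-1 Env mediated cell-cell fusion of effector and target cells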
# [12] = HIV-1 AD8 envelope cell-cell fusion blockers – cherry-pick, dose response (AID 652062); assay type: functional, cell-based;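 note: luciferase signal from cell-cell fusion driven by HIV-1 clade B AD8 Env; potency is for inhibitors of fusion seen as a drop in luminescence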
# [13] = molecular target: FAD-linked sulfhydryl oxidase ALR (Homo sapiens, UniProt P55789); assay: ALR-catalysed DTT oxidation blockers – biochemical, H2O2 detection, luminescence, cherry-pick, dose response (AID 493248)
# Sequence of FAD-linked sulfhydryl oxidase ALR (P55789 whole entry): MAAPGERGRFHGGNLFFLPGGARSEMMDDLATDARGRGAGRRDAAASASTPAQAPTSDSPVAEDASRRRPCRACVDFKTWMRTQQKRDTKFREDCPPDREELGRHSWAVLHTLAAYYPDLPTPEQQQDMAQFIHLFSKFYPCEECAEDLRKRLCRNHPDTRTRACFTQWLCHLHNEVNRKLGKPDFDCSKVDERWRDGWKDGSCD
# Sequence of Large T antigen (P03070 whole entry): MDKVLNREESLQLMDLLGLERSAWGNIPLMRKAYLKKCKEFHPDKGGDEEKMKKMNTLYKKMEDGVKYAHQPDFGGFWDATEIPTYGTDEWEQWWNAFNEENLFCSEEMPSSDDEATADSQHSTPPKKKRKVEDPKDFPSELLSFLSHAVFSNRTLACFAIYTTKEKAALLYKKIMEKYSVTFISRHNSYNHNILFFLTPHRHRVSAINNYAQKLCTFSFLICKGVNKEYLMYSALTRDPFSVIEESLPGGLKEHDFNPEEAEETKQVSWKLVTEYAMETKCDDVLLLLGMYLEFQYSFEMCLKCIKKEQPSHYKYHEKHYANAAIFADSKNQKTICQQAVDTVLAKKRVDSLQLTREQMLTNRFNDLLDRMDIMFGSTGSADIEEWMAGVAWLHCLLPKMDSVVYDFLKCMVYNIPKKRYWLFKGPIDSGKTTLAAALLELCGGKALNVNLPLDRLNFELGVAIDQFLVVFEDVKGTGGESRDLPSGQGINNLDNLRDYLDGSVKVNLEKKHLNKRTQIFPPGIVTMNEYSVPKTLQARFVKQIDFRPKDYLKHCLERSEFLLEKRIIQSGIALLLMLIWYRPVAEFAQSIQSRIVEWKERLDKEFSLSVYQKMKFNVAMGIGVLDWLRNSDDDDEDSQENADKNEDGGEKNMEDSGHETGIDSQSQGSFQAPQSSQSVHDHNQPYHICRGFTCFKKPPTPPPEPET
# T3 sequence (P49327 whole entry): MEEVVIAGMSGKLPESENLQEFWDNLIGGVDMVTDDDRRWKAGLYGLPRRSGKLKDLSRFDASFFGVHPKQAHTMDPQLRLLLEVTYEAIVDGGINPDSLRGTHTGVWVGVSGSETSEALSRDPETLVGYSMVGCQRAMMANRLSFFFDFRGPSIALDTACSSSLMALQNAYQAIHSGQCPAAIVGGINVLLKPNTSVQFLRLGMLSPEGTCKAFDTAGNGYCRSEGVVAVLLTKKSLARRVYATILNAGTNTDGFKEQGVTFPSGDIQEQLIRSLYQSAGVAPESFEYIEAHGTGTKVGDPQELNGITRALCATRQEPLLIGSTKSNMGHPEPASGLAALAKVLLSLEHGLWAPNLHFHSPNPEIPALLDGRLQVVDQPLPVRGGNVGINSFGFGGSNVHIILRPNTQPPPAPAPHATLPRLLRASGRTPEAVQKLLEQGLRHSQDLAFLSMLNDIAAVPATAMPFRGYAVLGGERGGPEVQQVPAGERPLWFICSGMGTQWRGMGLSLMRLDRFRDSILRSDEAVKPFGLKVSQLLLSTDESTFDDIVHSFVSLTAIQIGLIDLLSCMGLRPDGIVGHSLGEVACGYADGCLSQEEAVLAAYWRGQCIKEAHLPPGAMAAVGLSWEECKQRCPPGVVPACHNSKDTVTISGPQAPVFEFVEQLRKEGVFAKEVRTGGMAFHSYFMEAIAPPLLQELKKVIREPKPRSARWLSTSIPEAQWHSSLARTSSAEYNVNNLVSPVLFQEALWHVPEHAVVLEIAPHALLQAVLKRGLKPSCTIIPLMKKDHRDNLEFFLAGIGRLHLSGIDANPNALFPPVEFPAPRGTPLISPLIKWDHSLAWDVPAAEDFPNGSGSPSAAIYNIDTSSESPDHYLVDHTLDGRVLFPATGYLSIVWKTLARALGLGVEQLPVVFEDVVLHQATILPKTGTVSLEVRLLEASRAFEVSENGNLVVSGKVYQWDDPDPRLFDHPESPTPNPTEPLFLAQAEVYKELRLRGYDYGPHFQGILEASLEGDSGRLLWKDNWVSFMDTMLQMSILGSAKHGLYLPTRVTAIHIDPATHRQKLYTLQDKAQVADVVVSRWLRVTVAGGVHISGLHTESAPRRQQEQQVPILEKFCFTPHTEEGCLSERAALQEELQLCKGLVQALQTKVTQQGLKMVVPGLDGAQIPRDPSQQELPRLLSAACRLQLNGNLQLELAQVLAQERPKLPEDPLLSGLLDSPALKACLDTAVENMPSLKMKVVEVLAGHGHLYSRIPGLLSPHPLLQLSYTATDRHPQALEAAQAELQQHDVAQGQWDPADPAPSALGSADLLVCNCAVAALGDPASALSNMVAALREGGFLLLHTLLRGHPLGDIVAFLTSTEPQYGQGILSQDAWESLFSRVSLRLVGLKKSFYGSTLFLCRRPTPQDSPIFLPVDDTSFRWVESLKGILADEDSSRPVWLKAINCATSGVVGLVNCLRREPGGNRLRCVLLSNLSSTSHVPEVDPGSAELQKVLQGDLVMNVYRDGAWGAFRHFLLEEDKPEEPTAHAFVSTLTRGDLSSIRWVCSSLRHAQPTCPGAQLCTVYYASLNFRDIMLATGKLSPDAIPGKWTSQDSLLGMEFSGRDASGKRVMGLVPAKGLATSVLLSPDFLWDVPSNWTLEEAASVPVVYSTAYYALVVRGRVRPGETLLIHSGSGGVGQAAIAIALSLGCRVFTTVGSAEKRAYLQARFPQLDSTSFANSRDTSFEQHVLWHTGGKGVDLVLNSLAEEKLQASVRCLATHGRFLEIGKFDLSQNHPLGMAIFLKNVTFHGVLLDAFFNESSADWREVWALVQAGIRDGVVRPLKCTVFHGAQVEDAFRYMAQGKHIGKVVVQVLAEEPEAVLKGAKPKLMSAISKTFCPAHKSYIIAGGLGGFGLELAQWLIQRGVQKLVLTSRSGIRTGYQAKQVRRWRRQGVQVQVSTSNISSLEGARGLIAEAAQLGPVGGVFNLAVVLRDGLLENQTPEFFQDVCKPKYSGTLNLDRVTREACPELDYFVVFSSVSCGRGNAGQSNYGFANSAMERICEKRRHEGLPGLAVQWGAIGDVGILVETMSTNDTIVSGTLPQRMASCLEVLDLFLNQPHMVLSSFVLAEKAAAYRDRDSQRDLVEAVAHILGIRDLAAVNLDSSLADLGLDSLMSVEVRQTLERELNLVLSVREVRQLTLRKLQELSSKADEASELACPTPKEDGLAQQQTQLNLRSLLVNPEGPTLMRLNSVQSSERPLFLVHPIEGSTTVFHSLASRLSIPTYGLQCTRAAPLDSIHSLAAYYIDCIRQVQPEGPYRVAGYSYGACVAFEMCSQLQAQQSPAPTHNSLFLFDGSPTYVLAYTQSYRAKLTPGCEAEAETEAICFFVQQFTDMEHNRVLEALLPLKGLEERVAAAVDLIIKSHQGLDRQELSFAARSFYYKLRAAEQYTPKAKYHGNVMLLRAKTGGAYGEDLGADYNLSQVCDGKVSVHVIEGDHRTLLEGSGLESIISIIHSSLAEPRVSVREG
# Sequence of Genome polyprotein (P29990 2492-3391 limits assumed): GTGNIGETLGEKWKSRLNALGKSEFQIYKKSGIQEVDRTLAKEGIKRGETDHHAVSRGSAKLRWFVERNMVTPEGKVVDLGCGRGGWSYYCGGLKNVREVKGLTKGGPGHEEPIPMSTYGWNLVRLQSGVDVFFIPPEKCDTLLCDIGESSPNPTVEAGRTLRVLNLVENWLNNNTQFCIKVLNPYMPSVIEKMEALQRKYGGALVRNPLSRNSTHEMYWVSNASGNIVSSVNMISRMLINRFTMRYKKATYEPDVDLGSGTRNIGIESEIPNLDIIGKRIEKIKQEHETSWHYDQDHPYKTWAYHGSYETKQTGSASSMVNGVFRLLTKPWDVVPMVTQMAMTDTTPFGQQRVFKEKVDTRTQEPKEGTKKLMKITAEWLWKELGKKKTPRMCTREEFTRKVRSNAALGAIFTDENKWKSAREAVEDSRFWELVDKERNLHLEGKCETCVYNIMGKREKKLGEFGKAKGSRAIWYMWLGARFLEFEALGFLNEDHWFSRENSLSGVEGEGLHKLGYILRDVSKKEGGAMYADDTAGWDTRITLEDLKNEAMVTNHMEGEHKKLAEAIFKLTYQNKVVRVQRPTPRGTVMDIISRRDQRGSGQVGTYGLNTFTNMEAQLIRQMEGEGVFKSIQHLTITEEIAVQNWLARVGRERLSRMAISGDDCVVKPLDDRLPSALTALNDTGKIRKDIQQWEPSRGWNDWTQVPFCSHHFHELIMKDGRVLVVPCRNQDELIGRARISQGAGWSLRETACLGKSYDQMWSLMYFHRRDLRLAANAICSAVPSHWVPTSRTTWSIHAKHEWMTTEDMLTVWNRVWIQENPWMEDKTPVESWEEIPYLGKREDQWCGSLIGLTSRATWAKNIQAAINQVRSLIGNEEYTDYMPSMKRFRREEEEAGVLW
# Sequence of Nonstructural protein 1 (Q194T2 whole entry): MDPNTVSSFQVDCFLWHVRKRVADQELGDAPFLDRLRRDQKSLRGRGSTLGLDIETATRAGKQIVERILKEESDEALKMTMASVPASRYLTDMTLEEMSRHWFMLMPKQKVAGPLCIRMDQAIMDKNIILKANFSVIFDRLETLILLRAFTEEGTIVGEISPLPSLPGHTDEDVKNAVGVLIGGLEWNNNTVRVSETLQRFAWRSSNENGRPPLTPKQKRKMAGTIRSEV
# Sequence of Cytochrome P450 2C19 (P33261 whole entry, the tested form may be a part): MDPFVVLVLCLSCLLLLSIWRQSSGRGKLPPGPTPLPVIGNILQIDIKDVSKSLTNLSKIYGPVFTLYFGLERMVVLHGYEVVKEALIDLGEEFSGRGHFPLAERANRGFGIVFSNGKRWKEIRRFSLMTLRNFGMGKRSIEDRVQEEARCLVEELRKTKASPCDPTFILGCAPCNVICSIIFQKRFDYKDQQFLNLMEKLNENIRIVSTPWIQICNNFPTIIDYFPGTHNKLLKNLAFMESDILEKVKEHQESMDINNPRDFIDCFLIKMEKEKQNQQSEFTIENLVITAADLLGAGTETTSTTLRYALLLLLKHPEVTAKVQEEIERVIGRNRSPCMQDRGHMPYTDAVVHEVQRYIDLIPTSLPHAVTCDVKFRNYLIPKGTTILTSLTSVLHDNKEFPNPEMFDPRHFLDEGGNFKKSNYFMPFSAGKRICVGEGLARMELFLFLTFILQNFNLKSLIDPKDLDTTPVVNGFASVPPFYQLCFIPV
smiles,measurement,setting,value
Clc1ccc(-c2cn3c(n2)-c2ccccc2C3)cc1Cl,IC50,Protein skinhead-1,> 100 µM (inactive)
Cc1ccc(-c2csc(-c3ccncc3)n2)cc1,IC50,Protein skinhead-1,65.2 µM (inactive)
O=C(COn1nnc2ccccc21)NCC1CCCCC1,EC50,[1],5.83 µM (active)
same,EC50,[2],68.8 µM (active)
same,EC50,H4,31.9 µM (inconclusive)
O=C(NC1CC1)c1cc(-c2ccc(Br)cc2)nc2ccccc12,IC50,Protein skinhead-1,> 100 µM (inactive)
CC12CN3CC(C)(CN(C1)C3c1ccc([N+](=O)[O-])o1)C2 (stereo unspecified),IC50,cells,11.1 µM (active)
COc1ccc2cc(C(=O)C3CCCN(Cc4cccc(C)n4)C3)ccc2c1 (stereo unspecified),EC50,[3],11.1 µM (active)
same,EC50,Streptokinase A,> 150 µM (not active)
same,EC50,Streptococcus,> 150 µM (not active)
same,CC50,[4],> 40 µM (active)
same,IC50,cells,3 µM (active)
O=C1CC(c2cccc([N+](=O)[O-])c2)c2c(ccc3ccccc23)N1 (stereo unspecified),IC50,Fatty acid synthase [5],52.2 µM (inactive)
same,IC50,Fatty acid synthase [6],56.4 µM (inactive)
Cc1cc(C)c2cc(C#N)c(N3CCCC3)nc2c1,IC50,Protein skinhead-1,> 100 µM (inactive)
C=CCOc1c(Br)cc(/C=C2/C(=O)ON=C2C)cc1OC,IC50,Genome polyprotein,> 100 µM (active)
CCN(Cc1ccccc1)c1ccc(N=Nc2nn(C)c(C)c2[N+](=O)[O-])cc1,IC50,Nonstructural protein 1,9.29 µM (active)
same,IC50,Fatty acid synthase [5],13.9 µM (active)
same,IC50,Fatty acid synthase [6],7.95 µM (active)
Cc1ccc(CCC(=O)Nc2cc(Cl)ccc2Cl)o1,IC50,cells,42.8 µM (active)
Cc1cccn2c(CN(C)CCC3CCCCO3)c(C(=O)N3CCCCC3)nc12 (stereo unspecified),EC50,[1],19.9 µM (active)
same,EC50,[2],> 120 µM (not active)
same,EC50,H4,> 120 µM (not active)
CC1(C)CC(=O)C(C(c2ccc(Br)cc2)C2C(=O)CC(C)(C)CC2=O)C(=O)C1,IC50,Genome polyprotein,79.3 µM (active)
O=C(O)c1cc(S(=O)(=O)O)cc(Nc2c3ccccc3nc3ccccc23)c1O,IC50,Large T antigen,20.2 µM (active)
Cn1c(=O)c2c(nc(NCC3CCCC(CN)C3)n2Cc2ccc(Cl)cc2Cl)n(C)c1=O (stereo unspecified),EC50,[1],> 120 µM (not active)
same,EC50,[2],> 120 µM (not active)
same,EC50,H4,> 120 µM (not active)
Cc1ccc(C)c(S(=O)(=O)N2CCN(C(=O)C3CCN(c4ncnc5sc(C)c(C)c45)CC3)CC2)c1,AC50,[7],2.82 µM (active)
same,AC50,[8],> 70 µM (inactive)
same,AC50,[9],2.29 µM (active)
O=[N+]([O-])c1ccc(Sc2n[nH]c(-c3ccccc3)n2)nc1,EC50,[1],5.81 µM (active)
same,EC50,[2],93.9 µM (active)
same,EC50,H4,> 120 µM (not active)
Cc1cc2c(=O)oc(-c3ccccc3Br)nc2s1,IC50,Fatty acid synthase [5],7.57 µM (active)
same,IC50,Fatty acid synthase [6],8.01 µM (active)
Cc1ccc(NC(=O)C2OCCc3ccccc32)cc1 (stereo unspecified),EC50,[1],14.7 µM (active)
same,EC50,[2],12 µM (active)
same,EC50,H4,31.4 µM (active)
CC(=O)Nc1sc(/C(C#N)=C\c2cccc(Cl)c2)nc1-c1ccc(C)cc1,IC50,Protein skinhead-1,> 100 µM (inactive)
CCN(CC)c1ccc(NC(=O)c2ccccc2F)cc1,IC50,Large T antigen,18.8 µM (active)
Clc1ccc2oc(-c3cccnc3)nc2c1,AC50,Cytochrome P450 2C19,14.1 µM (inconclusive)
same,IC50,Protein skinhead-1,29 µM (active)
COc1cccc(-n2c(CN3CCN(c4ccccn4)CC3)nc3ccc([N+](=O)[O-])cc3c2=O)c1,IC50,Fatty acid synthase [5],3.23 µM (active)
same,IC50,Fatty acid synthase [6],3.67 µM (active)
O=C(Nc1ccc(C2CC2(Cl)Cl)cc1)c1ccccc1Br (stereo unspecified),IC50,Protein skinhead-1,70 µM (inactive)
COc1ccc2nc(NC3=NCCC3)sc2c1,EC50,[1],37.7 µM (active)
same,EC50,[2],22.1 µM (active)
same,EC50,H4,8.52 µM (active)
Cc1ccc(OCCNC(=O)CNC(=O)c2ccc(Cl)c([N+](=O)[O-])c2)cc1,IC50,Fatty acid synthase [5],8.99 µM (active)
same,IC50,Fatty acid synthase [6],9.71 µM (active)
O=C(CN1CCCC1c1cccs1)Nc1cc(S(=O)(=O)N2CCCCC2)ccc1Cl (stereo unspecified),AC50,[7],14.4 µM (active)
same,AC50,[8],60.5 µM (active)
same,AC50,[9],6.82 µM (active)
Cn1nc(C(C)(C)C)cc1C(=O)N1CCCCC1c1cc(C(=O)Nc2cccc3c2CCCC3)no1 (stereo unspecified),AC50,[7],10.2 µM (active)
same,AC50,[8],62.8 µM (active)
same,AC50,[9],16.5 µM (active)
COC(=O)C1=C(c2ccc(OCc3ccccc3)cc2)C[C@@H]2CC[C@H]1N2C(=O)NCc1ccc(C(C)(C)C)cc1,AC50,[7],6.84 µM (active)
same,AC50,[8],> 70 µM (inactive)
same,AC50,[9],1.63 µM (active)
O=C(Nc1cccc(C(=O)O)c1)/C(=C\c1cccc([N+](=O)[O-])c1)NC(=O)c1ccc(Br)cc1,IC50,Fatty acid synthase [5],4.62 µM (active)
same,IC50,Fatty acid synthase [6],5.19 µM (active)
O=C(C[C@H]1C=C[C@@H](NC(=O)Nc2ccccc2F)[C@@H](CO)O1)NCc1ccc(-c2ccccc2)cc1,AC50,[10],< 0.26 µM (active)
same,AC50,[11],< 0.26 µM (active)
same,AC50,[12],< 0.26 µM (active)
Cc1ccc(S(=O)(=O)Nc2ccc3c(c2)CC(=O)N([C@@H](C)CO)C[C@H](C)[C@H](CN(C)S(=O)(=O)c2ccccc2)O3)cc1,AC50,[10],14.7 µM (active)
same,AC50,[11],15.5 µM (active)
same,AC50,[12],34.2 µM (active)
C[C@H](CO)N1C[C@H](C)[C@H](CN(C)S(=O)(=O)c2ccccc2)Oc2ccc(NC(=O)Cn3cnnn3)cc2CC1=O,AC50,[10],13.5 µM (active)
same,AC50,[11],2.07 µM (active)
same,AC50,[12],20.3 µM (active)
Cc1ccc(S(=O)(=O)N2CCN(CC(=O)N/N=C\c3ccc(O)c(O)c3)CC2)cc1,IC50,Large T antigen,9.98 µM (active)
same,AC50,[13],2.26 µM (active)
COC(=O)c1ccc(/N=C/c2c(-c3ccccc3)n[nH]c2O)cc1,EC50,[1],> 120 µM (not active)
same,EC50,[2],> 120 µM (not active)
same,EC50,H4,> 120 µM (not active)
